Results as given in patent US7871635B2, “Use of compound that inactivates protein kinase A in a composition containing a cosmetically acceptable medium for lightening the skin” (Societe d'Exploitation de Produits pour les Industries …, priority 2002, dated 2011).

Assays:
Protein kinase A = experiment: Study of protein kinase A activity (phosphorylation of histone H1); type: biochemical, bovine; details: 1 mg/ml; for Enzymatic activity relative to the control (protein kinase A): cAMP 3 μM, histone H1 200 μg/ml, 20 minutes at 30° C.
Experimental: The influence of N-undecylenoylphenylalanine, kojic acid and arbutin on the phosphorylation of […] with protein kinase A (PK A) was compared. Protein kinase A is extracted from bovine brains via the method described in: “[…]., Sano M., Hayashi K., Inoue T., Naito […]. Biol. Chem., 265, 1990, 5267-5272”. […] Sodium hydroxide has no effect on the parameter studied. […] Control cultures are incubated, in the absence of product, and in the presence of radioactive ATP and histone H1. Each test is performed in triplicate. […] The results given in the table below are the means of the three tests performed for each of the products. They are expressed as a percentage of enzymatic activity relative to the control group and as a percentage of inhibition.

[1] = system: Pigmented human epidermides (phototype IV); experiment: Intracellular melanin content in reconstructed human epidermides; type: cell-based; details: topical, 4 days; for Intracellular melanin: control 347 ± 2 μg/ml
Experimental: Pigmented human epidermides (phototype IV) supplied by Skinethic, of 0.63 cm^2, are reconstructed from a coculture of normal human keratinocytes (skin of the forearm, donor, 2nd passage) and from normal human melanocytes (skin of the forearm, donor of phototype IV, 3rd passage). The keratinocyte/melanocyte ratio is 10:1. The cocultures are inoculated onto inert polycarbonate filters. They are cultured for 10 days in the medium supplied by Skinethic, consisting of MCDB 153 medium supplemented with 5 μg/ml of insulin, 1.5 mM of calcium and growth factors. […] The epidermides are cultured in 6-well plates containing 1 ml of the medium described above. […] The application is performed every day for 4 consecutive days. The incubation medium of the reconstructed epidermides is renewed every day for 4 consecutive days. Control epidermides are treated with a formulation free of active principle. Each test is performed in duplicate. […] Dermatol., 105, 1995, 361-366. The samples are centrifuged for 10 minutes at 10 000 rpm. The extracted intracellular […] measured by spectrophotometry at 500 nm. A melanin calibration range is prepared in parallel. The results are expressed as […] of intracellular melanin and as a percentage of inhibition relative to the control group.

Adenylate cyclase = experiment: Study of adenylate cyclase activation (ATP to cAMP, radioimmunological assay); type: biochemical, rat; details: 1 mg/ml; for Enzymatic activity relative to the control (adenylate cyclase): forskolin 10 μM, ATP 0.5 mM, 30 minutes at 30° C.
Experimental: The influence of N-undecylenoylphenylalanine, kojic acid and arbutin on the conversion of ATP into cAMP was compared via a radioimmunological assay.
Adenylate cyclase, which converts ATP into cAMP, is extracted from rat brains via the method described in “Salamon Y., Londos C. and Rodbell M.; Anal. Biochem., 58, 1974, 541-548”; it is then activated with 10 μM of forskolin.
They are each tested separately at a concentration of 1 mg/ml. Sodium hydroxide has no effect on the parameter studied.
The activated enzyme is incubated, in the presence or absence of these products, and in the presence of 0.5 mM of ATP, for 30 minutes at 30° C.
Control cultures are incubated, in the absence of product, and in the presence of ATP. Each test is performed in triplicate.
After incubation for 30 minutes, the amount of cAMP produced is evaluated via a radioimmunological assay performed using a commercial kit; the radioactivity is measured with a scintillation counter (Topcount, Packard), a small radioactivity count reflecting small activation of adenylate cyclase.
The results given in the table below are the means of the three tests performed for each of the products. They are expressed as a percentage of enzymatic activity relative to the control group and as a percentage of inhibition.

MC1R receptors = molecular target: T1, MC1R receptors (Mus musculus, UniProt Q01727); experiment: Affinity study on MC1R receptors ([125I]NDP-α-MSH binding); details: for inhibition at 100 µg/mL / inhibition at 1000 µg/mL: read-out: Inhibition of specific binding by the test products; for displacement of the specific binding of the ligand [125I]NDP-α-MSH: at the test concentrations (0.1 mg/ml and 1 mg/ml); for Activity relative to the control (percentage of specific binding): [125I]NDP-α-MSH 0.05 nM, 90 minutes at 22° C.
T1 construct: isolated from cell membranes of mouse melanocytes of the B16/F1 line; endogenous in cells; host or cells: B16/F1 mouse melanocyte (melanoma) cell membranes
Experimental: MC1R receptors are isolated from cell membranes of mouse melanocytes of the B16/F1 line via the method described in: Siegrist W., Oestreicher M., Stutz M., Girard J. and […]., 8, 1988, 323-343”. […] Sodium hydroxide has no effect on the parameter studied. The MC1R receptors are incubated, in the presence or absence of these products, with an iodine-125 labeled radioactive ligand, the […]-α-melanocyte […] hormone [^125I]NDP-α-MSH at a concentration of 0.05 nM, for 90 minutes at 22° C. Control cultures are incubated, in the absence of product, and in the presence of the radioactive ligand. Each test is performed in triplicate. After incubation for 90 minutes, the cell membranes are rapidly filtered and the filters are washed several times with cold buffer. The amount of radioactive ligand bound to the MC1R receptors is measured using a scintillation counter (Topcount, Packard). The results given in the table below are the means of the three tests performed for each of the products. They are expressed as a percentage of specific binding relative to the control group and as a percentage of inhibition of this binding.

endogenous tyrosinase = experiment: Phosphorylated tyrosinase activity in B16/F1 melanocyte lysates; type: cell-based, mouse; details: 72 hours; for Tyrosinase activity: control 9.8 ± 0.3 IU/ml
Experimental: Mouse melanocytes of the B16/F1 line are inoculated in 96-well culture plates at a density of 1500 cells/well. The cells are cultured in a culture medium (MCM medium) at 37° C. under a humid atmosphere containing 5% CO2. The cells are used at 60% of confluence, i.e. 4 days after inoculation.
The MCM medium has the following composition: DMEM medium (Dulbecco's Modified Eagle's Medium) containing 4.5 g/l of glucose supplemented with L-glutamine (2 mM), penicillin (50 IU/ml), streptomycin (50 μg/ml) and fetal calf serum (10% v/v).
N-Undecylenoylphenylalanine is diluted to 4 mg/ml in decinormal aqueous sodium hydroxide solution. […]
The melanocyte cultures are incubated in the presence of the test product or of the reference products for 72 hours at 37° C., under a humid atmosphere containing 5% CO2.
Control cultures are incubated, in the absence of product, in the MCM medium. These control cultures are prepared on each culture plate.
Each test is performed six times.
After incubation for 72 hours, the second portion of the cell carpet (n=3) is rinsed with PBS. The cells are lyzed with Triton™ X100 at a concentration of 0.1% (w/v) for 30 minutes at room temperature. The activity of the endogenous tyrosinase is evaluated by adding 0.1% (w/v) of L-dopa, followed by incubation for 3 hours at 37° C. in the absence of air and light. The dopaquinone formed by the reaction between the tyrosinase and the L-dopa is measured by spectrophotometry at 450 nm. A calibration range of purified tyrosinase is prepared in parallel.
The results are expressed as IU/ml of tyrosinase activity and as a percentage of inhibition relative to the control group.

[2] = listed as N-undecylenoylphenylalanine

T1 sequence (Q01727 whole entry): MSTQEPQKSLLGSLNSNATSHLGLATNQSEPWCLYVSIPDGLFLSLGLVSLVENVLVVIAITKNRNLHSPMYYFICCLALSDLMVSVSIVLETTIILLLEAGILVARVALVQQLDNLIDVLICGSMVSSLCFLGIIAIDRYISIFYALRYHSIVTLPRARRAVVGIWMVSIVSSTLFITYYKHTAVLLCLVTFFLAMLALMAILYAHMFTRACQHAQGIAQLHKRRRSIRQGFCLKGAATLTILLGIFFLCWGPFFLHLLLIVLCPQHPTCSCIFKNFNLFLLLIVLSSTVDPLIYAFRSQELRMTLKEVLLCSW

Row | Compound | Inhibition of protein kinase A activity (Protein kinase A) | Intracellular melanin ([1]; formulated at 1% (w/v)) | Intracellular melanin ([1]; formulated at 3% (w/v)) | Inhibition of adenylate cyclase activity (Adenylate cyclase) | inhibition at 100 µg/mL (MC1R receptors; at 0.1 mg/ml) | inhibition at 1000 µg/mL (MC1R receptors; at 1 mg/ml) | displacement of the specific binding of the ligand [125I]NDP-α-MSH (MC1R receptors) | Enzymatic activity relative to the control (protein kinase A) (Protein kinase A) | Inhibition of tyrosinase activity (endogenous tyrosinase; at 40 μg/ml) | Tyrosinase activity (endogenous tyrosinase; at 40 μg/ml) | Enzymatic activity relative to the control (adenylate cyclase) (Adenylate cyclase) | Activity relative to the control (percentage of specific binding) (MC1R receptors; at 0.1 mg/ml) | Activity relative to the control (percentage of specific binding) (MC1R receptors; at 1 mg/ml) | also measured
1 | O=c1cc(CO)occ1O [Kojic acid, kojic acid] | 0% | 273 ± 2 µg/mL | 234 ± 19 µg/mL | 55% | 0% | 0% | neither arbutin nor kojic acid, which are the reference depigmenting compounds, displaces the specific binding | – | – | – | – | – | – | Inhibition of adenylate cyclase activity (Adenylate cyclase; listed as kojic acid): moderate effect
2 | C=CCCCCCCCCC(=O)NC(Cc1ccccc1)C(=O)O (stereo not shown) [N-Undecylenoylphenylalanine, N-(ω-undecylenoyl)phenylalanine] | 100% | 264 ± 9 µg/mL | 264 ± 11 µg/mL | 100% | 42% | 96% | – | −0.4 ± 0.3% | 67% | 3.2 ± 0.6 IU/ml | −16.0 ± 0.5% | 57.70 ± 2.38% | 4.20 ± 0.86% | Inhibition of protein kinase A activity (Protein kinase A; [2]): totally inhibits; Inhibition of the amount of intracellular melanin ([1]; formulated at 3% (w/v)): 24%; Inhibition of the amount of intracellular melanin ([1]; formulated at 3% (w/v), listed as N-undecylenoylphenylalanine): 24%; Inhibition of adenylate cyclase activity (Adenylate cyclase; [2]): total inactivation; Inhibition of specific binding by the test products (MC1R receptors; at 0.1 mg/ml): 42.3%; Inhibition of specific binding by the test products (MC1R receptors; at 1 mg/ml): 95.8%
3 | OC[C@H]1O[C@@H](Oc2ccc(O)cc2)[C@H](O)[C@@H](O)[C@@H]1O [Arbutin, arbutin] | 9.1% | 242 ± 46 µg/mL | 263 ± 16 µg/mL | 0% | 0% | 3.7% | neither arbutin nor kojic acid, which are the reference depigmenting compounds, displaces the specific binding | 90.9 ± 8.4% | 23% | 7.6 ± 1.1 IU/ml | 109.7 ± 4.6% | 100.80 ± 0.55% | 96.30 ± 4.16% | Inhibition of adenylate cyclase activity (Adenylate cyclase; listed as arbutin): no effect
4 | Oc1ccc(O)cc1 [Hydroquinone, hydroquinone] | – | – | – | – | – | – | – | – | – | – | – | – | – | Intracellular melanin ([1]; formulated at 0.1% (w/v)): 317 ± 0 µg/mL; Inhibition of tyrosinase activity (endogenous tyrosinase; at 5 μg/ml): 69%; Tyrosinase activity (endogenous tyrosinase; at 5 μg/ml): 3.0 ± 0.3 IU/ml
